Results reported in patent publication US12599676B2, “Cytotoxic imidazo[1,2-A]pyridine compounds and their use in therapy” (MyricX Pharma Limited, priority 2022, dated 2026).
pIC50: −log10 of the molar value.

How the values were obtained:
[1] = tested on: BT474 breast cancer cells; assay: Orthotopic BT474 breast cancer xenograft model; assay type: in vivo, NOD/SCID mice; conditions: 2.0 mg/kg IV, 2 days dosing then 5 day holiday (Group 6), stopped at day 13
Experimental: NOD/SCID mice were implanted with estrogen pellets (17β-estradiol, 60 day release, 0.36 mg) subcutaneously in the right flank one day before the tumour inoculation. On day −8 each mouse was then injected in the right mammary fat pad with 1×10^7 viable BT474 breast cancer cells resuspended in 0.2 mL of Phosphate Buffered Saline mixed with matrigel (1:1). Mice were assigned to treatment groups when tumour volumes averaged 149.78 mm^3 on study day 0. […] The study was terminated on Study Day 35.
Each group was comprised of 10 mice. Tumour volumes in mice were measured three times per week and tumour volume was calculated using the formula 0.5 (L×W^2). […] Statistical analyses were carried out on tumour readings for Groups 1, 2, 3, 4 and 5 up to Study Day 23 (after this point >50% of the animals within one of the study groups were lost; Group 2) using two-way ANOVA, or a Mixed-Effects model was fitted when values were missing from groups (PRISM GraphPad Software Inc.).
Tumour Growth Inhibition, ΔTGI %=((mean(C)−mean (CO))−(mean(T)−mean(TO)))/(mean(C)−mean(CO))×100% where T is the mean tumour volume on the measurement day and TO is the mean tumour volume of the treated group on Study Day 0. C is the mean tumour volume of the control Group 1 mice on the measurement day and CO is the mean tumour volume on Study Day 0.

[2] = Body weight in BT474 xenograft study; assay type: in vivo, NOD/SCID mice; conditions: trastuzumab or ADC Example 1 2.5 or 5 mg/kg; Example 12 2 mg/kg (Group 6)
Experimental: During the study, body weights were measured three times weekly for all animals. Animals were given Diet Gel for the entire duration on the study.

[3] = tested on: DU4475 (human breast carcinoma); assay: Cell cytotoxicity CellTiter-Glo, DU4475; assay type: cell-based; conditions: DU-4475
Experimental: (§1) Cells were seeded in 96-well microplates and treated with compounds or cisplatin (as a positive control) at 9 increasing concentrations in technical triplicate. […] On day 1, 90 μL of various cell suspensions with the number of cells ranging from 5000-8000 cells/well were seeded into wells of a 96-well plate (Corning). The number of cells to be seeded was previously determined. • 2. All 96-wells plates with cells were placed in an incubator overnight at 37° C. with 5% CO2. • 3. On day 2, cells were observed under a microscope ensuring the cells treated with vehicle control were in good condition. • 4. A dilution series of the test compounds and cisplatin were prepared at 10× the final concentrations required. 10 μL/well of 10× compound solution was added to the corresponding plates. The final volume was 100 μL/well for all the plates. Final DMSO concentration was 0.1%. • 5. On day 5 (after 72 hours of incubation), 50 μL of CTG reagent was added to each well. • 6. Contents were mixed for 5 minutes on an orbital shaker to facilitate cell lysis. • 7. The plate was allowed to incubate at room temperature for 10 minutes to stabilize luminescent signals. […]

[4] = tested on: MX-1 (human breast carcinoma); assay: Cell cytotoxicity CellTiter-Glo, MX-1; assay type: cell-based; conditions: MX1
Experimental: as §1

[5] = Caco-2 cell permeability assay; assay type: in vitro ADME; conditions: human, Caco-2, pH 7.4, basal to apical Papp, pH 7.4, 2.5 h
Procedure, shortened: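 Caco-2 monolayers grown 10 days were dosed at 2 μM (1% DMSO) on the donor side in HBSS/10 mM HEPES pH 7.4, for both AB and BA directions, then incubated 2.5 h at 37 °C without shaking. Donor and acceptor samples were quantified by LC-MS/MS to give Papp. Wells that failed a Lucifer Yellow integrity check (>1% passage) were excluded.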

[6] = tested on: CA46 (human B cell lymphoma); assay: Cell cytotoxicity CellTiter-Glo, CA46; assay type: cell-based
Experimental: as §1

With `CNCc1cnc2ccc(-c3ccc(F)c(F)c3OCCc3c(C(O)C(C)(C)C)nn(C)c3C)cn12` (single isomer, unassigned) [Example 12, 1-(4-(2-(2,3-difluoro-6-(3-((methylamino)methyl)imidazo[1,2-a]pyridin-6-yl)phenoxy)ethyl)-1,5-dimethyl-1H-pyrazol-3-yl)-2,2-dimethylpropan-1-ol] as the molecule, how does the tumour size [1] read?
Its tumour size is “reduced tumour size”.

What about the “body weights compared to vehicle control” value [2] of the same molecule?
Its value is “decreased significantly”.

With `Cc1c(CCOc2cc(Cl)ccc2-c2ccc3ncc(CCN)n3c2)c(C(=O)N(C)C)nn1C` [Comparator Compound 1, 4-(2-{2-[3-(2-aminoethyl)imidazo[1,2-a]pyridin-6-yl]-5-chlorophenoxy}ethyl)-N,N,1,5-tetramethyl-1H-pyrazole-3-carboxamide, reference compound] as the molecule, how does the pIC50 [3] read?
The pIC50 was < 6.00.

And the pIC50 [4]?
The pIC50 was 7.40.

And the Papp B→A at 2.5 h, 2 μM [5]?
The Papp B→A at 2.5 h, 2 μM was 9.1 ×10⁻⁶ cm/s.

What about the pIC50 [6] of the same molecule?
The pIC50 was 6.21.
